Data as given in patent US20250051825A1, “Ex Vivo Production of Compounds of Interest” (Nederlandse Organisatie voor …, priority 2021, published 2025).

Legend:
[1] = test system: perfused porcine liver; assay: Atorvastatin normothermic machine perfusion of ex vivo porcine liver, perfusate and bile analysed by LC/MS; format: in vitro ADME, Sus scrofa domesticus; conditions: for % billiary clearance (metabolite abundance as percentage of given Atorvastatin dose): 0-120 min, Atorva alone, 0.104 mg atorvastatin to portal vein, bile, n = 1
Protocol: Porcine Livers. Livers were obtained from a local slaughterhouse (Sus scrofa domesticus, approximately at the age of 6 months, with body weight between 100 and 120 kg). Pigs were sacrificed by a standardized procedure of electrocution followed by exsanguination. Thereafter, 3 L of blood was collected in a container supplemented with 25,000 IU of heparin. All abdominal organs were dissected outside the animal and collected. Within 20 minutes after termination, the vena porta was cannulated and directly flushed by gravity with 3 L of NaCl 0.9% (Baxter BV, Utrecht, The Netherlands) supplemented with 5000 IU of heparin followed by 2 L of ice-cold histidine-tryptophan-ketoglutarate solution (Plegistore, Warszawa, Poland). In the meantime, the arteria hepatica was dissected, cannulated, and subsequently flushed with histidine-tryptophan-ketoglutarate. At the laboratory, side branches were ligated, and the common bile duct was cannulated, whereas the ductus cysticus, derived from the gall bladder, was ligated. Normothermic Machine Perfusion. The porcine livers were perfused using the LiverAssist device (XVIVO, Groningen, The Netherlands). The machine consists of two rotary pumps that provide a pulsatile flow to the hepatic artery and a continuous flow to the portal vein. The system was filled with 2 L perfusion fluid containing red blood cells and perfusate (Table 2). […] Additionally, amino acids and vitamins were continuously provided to keep the liver metabolically active. Gas delivery to the LiverAssist consisted of 95% oxygen and 5% carbon dioxide at 2 L/min, and the temperature was set at 39 C (body temperature pigs). […] Arterial blood gas samples were taken hourly to monitor liver viability (PH, glucose, Na, K, lactate, etc.) using the i-STAT clinical analyzer (Abbot Point of Care Inc., Princeton, NJ). […] Time of starting the slow bolus was set at t=0 min. […] Drug concentrations in perfusate, bile and liver biopsies were determined by LC-MS/MS analysis as described below. […] Briefly, 20 μL of sample was extracted by adding 100 μL of acetonitrile containing internal standard. […] Samples were then mixed with 50 μL of water, vortexed and injected in to LC/MS for quantification. The mass spectrometer (AB Sciex API 5500) was operated in electrospray positive ion mode with the capillary voltage of 5.5 kV and Spray temperature of 550° C. The multiple reaction monitoring transitions used for all the compounds are shown table 4.

[2] = test system: perfused porcine liver; assay: Midazolam continuous portal administration to ex vivo perfused porcine liver, metabolite quantified by UPLC/MS
[3] = 240 min of perfusion, input of 49.8 mg midazolam
[4] = from 40 mg midazolam (as summarised in description)

CC(C)c1c(C(=O)Nc2ccccc2)c(-c2ccccc2)c(-c2ccc(F)cc2)n1CC[C@@H]1C[C@@H](O)CC(=O)O1 [Atorvastatin lactone]
% billiary clearance (metabolite abundance as percentage of given Atorvastatin dose) [1]: 9.17%

CC(C)c1c(C(=O)Nc2ccc(O)cc2)c(-c2ccccc2)c(-c2ccc(F)cc2)n1CCC1CC(O)CC(=O)O1 (stereo not drawn) [4-hydroxy atorva lactone, 4-hydroxy atorvastatin lactone]
% billiary clearance (metabolite abundance as percentage of given Atorvastatin dose) [1]: 0.400%

CC(C)c1c(C(=O)Nc2ccc(O)cc2)c(-c2ccccc2)c(-c2ccc(F)cc2)n1CC[C@@H](O)C[C@@H](O)CC(=O)O [4-hydroxy atorva, 4-hydroxy atorvastatin]
% billiary clearance (metabolite abundance as percentage of given Atorvastatin dose) [1]: 10.28%

O=C(O)[C@H]1O[C@@H](OCc2ncc3n2-c2ccc(Cl)cc2C(c2ccccc2F)=NC3)[C@H](O)[C@@H](O)[C@@H]1O [1-OH midazolam glucuronide, midazolam 1′O-glucuronide]
presence in perfusate (chromatogram) ([2]; 240 min after starting the portal administration of midazolam): (abundant) presence | Yield 1-OH midazolam glucuronide, Bile [2, 3]: 0.254 mg | Yield 1-OH midazolam glucuronide, Perfusate [2, 3]: 1.19 mg | Yield 1-OH midazolam glucuronide, Tissue [2, 3]: 1.891 mg | Yield 1-OH midazolam glucuronide, Total ([2]; 240 min of perfusion, input of 49.8 mg midazolam, sum of perfusate, bile, tissue): 3.33 mg 1-OH midazolam glucuronide | metabolite obtained from liver tissue [2, 4]: 2 mg | metabolite obtained from plasma and bile [2, 4]: 1.5 mg | total metabolite produced [2, 4]: 3.5 mg

CC(C)c1c(C(=O)Nc2ccccc2)c(-c2ccccc2)c(-c2ccc(F)cc2)n1CC[C@@H](O)C[C@@H](O)CC(=O)O [atorvastatin, Atorvastatin, reference compound]
time until atorvastatin was detected in the bile ([1]; after the start of the bolus administration, slow bolus of 0.104 mg over 10 minutes to portal vein): ≤ 10 min | parent compound secreted into the bile ([1]; within 120 min of perfusion, 0.104 mg to portal vein): 13.0±5.6%

CC(C)c1c(C(=O)Nc2ccccc2O)c(-c2ccccc2)c(-c2ccc(F)cc2)n1CCC(O)CC(O)CC(=O)O (stereo not drawn) [2-hydroxy atorva, 2-hydroxy atorvastatin]
% billiary clearance (metabolite abundance as percentage of given Atorvastatin dose) [1]: 5.33%

CC(C)c1c(C(=O)Nc2ccccc2O)c(-c2ccccc2)c(-c2ccc(F)cc2)n1CCC1CC(O)CC(=O)O1 (stereo not drawn) [2-hydroxy atorva lactone, 2-hydroxy atorvastatin lactone]
% billiary clearance (metabolite abundance as percentage of given Atorvastatin dose) [1]: 3.48%
